# Measurements from patent US11591298B2, “Bisaminoquinoline compounds, pharmaceutical compositions prepared therefrom and their use” (THE TRUSTEES OF THE UNIVERSITY OF PENNSYLVANIA, priority 2011, dated 2023).
# Like-named read-outs stand apart in the source and are kept apart here.
# Tests used:
# [1] = system: LN229 (glioma), 1205Lu (melanoma), HT-29 (colon) and c8161 (melanoma) cells; test: MTT assay (72 hours) in 4 cell lines; format: cell-based; conditions: range over the 4 cell lines tested
# Description: FIGS. 4A, 4B, 4C, 4D. […] White arrows: small puncta; red arrows: dense puncta. Graphs show mean+/−SEM puncta/cell. (4B) Representative electron micrographs of LN229-GFP-LC3 cells treated (4 hours) with DMSO, HCQ 10 μM, or Lys01 10 μM Arrows: Autophagic vesicles. (4C) LC3 immunoblotting of LN229 cells treated for 24 hours an indicated; calculated ratio of LC3II/LC3I ratios for bafilomycin versus control co-treatment. […] (4D) MTT assay (72 hours) for 4 cell lines. Red: Lys01, Blue: Lys02, Purple: Lys03 Green: Lys04 Orange: HCQ. Values presented are means+/−SEM with 5 replicates per treatment.
# The MTT assay was used to assess viable cells at 72 hours.
# mice [2] = conditions: mouse, in vivo, ip, 76 mg/kg
# Description: For chronic treatment experiments the 1205Lu melanoma model was chosen over the c8161 xenograft model because c8161 xenografts tend to spontaneously ulcerate confounding tumor measurements and safety analysis. Ten mice bearing 1205Lu xenografts were matched for tumor volume per cohort were assigned to either PBS, HCQ 60 mg/kg i.p. or Lys05 76 mg/kg i.p. (equimolar dosing) dosed for 3 days of daily treatment with 2 days off treatment (3/5 days) for all 3 treatment groups, to allow for symptom recovery and to avoid excess toxicity.
# Paneth cell dysfunction, including reduced size and number of eosinophilic lysozyme-containing granules, has previously been described as the pathognomonic sign of autophagy deficiency in mice and a subset of Crohn's disease patients that have a genetic deficiency in the essential autophagy gene ATG16L1 (31).
# c8161 cells [3] = test: Immunoblotting against LC3 and p62 in c8161 cells; format: cell-based; conditions: Lys01 versus Lys05
# Description: (§1) FIGS. 5A, 5B. […] (5A) Immunoblotting against LC3 and p62 in c8161 cells treated as indicated (5B) MTT assay in c8161 cells at 72 hours. HCQ: Hydroxychloroquine.
# (§2) Lys05, the trihydrochloride salt of Lys01 was synthesized to enhance aqueous solubility and to enable in vivo studies. […] To investigate the safety of Lys05 and its in vivo effects on autophagy, c8161 xenografts matched for tumor size were treated with intraperitoneal (i.p.) daily PBS, or equimolar doses of HCQ or Lys05 (HCQ 60 mg/kg (138 nmoles/g), Lys05 76 mg/kg (138 nmoles/g)) for 48 hours. […] After 48 hours of treatment mice were euthanized, and tumors were processed for electron microscopy (EM).
# cathepsin D [4] = conditions: 1205Lu cells; within 24 hours; compared to HCQ- or PBS-treated cells
# c8161 xenografts = system: c8161 xenografts
# Description: (§3) FIGS. 6A, 6B, 6C, 6D, 6E, 6F, 6G. […] (6A) Representative electron micrographs (12,000×) of c8161 xenograft tumors harvested after 2 days of daily i.p. treatment with PBS, HCQ 60 mg/kg, or Lys05 76 mg/kg. Arrows: autophagic vesicles; scale bar 2 μm (6B) Quantification of mean+SEM number of autophagic vesicles/cell from two representative tumors from each treatment group. (C-D) 1205Lu xenografts were treated with PBS (blue), HCQ 60 mg/kg ip (green), or Lys05 76 mg/kg (red) i.p. every 3/5 days. (6C) Tumor volumes over 14 days (6D) Daily tumor growth rate. (E-G) HT29 xenografts were generated in the flanks of nude mice and treated with PBS, Lys05 10 mg/kg/ip daily, Lys05 40 mg/kg ip daily, or Lys05 80 mg/kg ip every 3/5 days. (6E) Average daily tumor growth rate. (6F) Tumor volumes over 14 days.
# (§4) FIGS. 7A, 7B, 7C. […] (7A) Immunoblotting against LC3 in lysates from individual c8161 tumors treated as indicated with daily i.p. injections for 48 hours. […] Arrows: Autophagic vesicle (white); apoptotic cell (orange) (7C) Immunoblotting against LC3 in HT29 xenografts treated with daily dosing (10, 40 mg/kg) or 3/5 days (80 mg/kg) for 14 days.
# as §2
# [5] = system: HT-29 colon cancer xenografts
# Description: as §3, §4
# c8161 cells [6] = test: MTT assay in c8161 cells at 72 hours; format: cell-based; conditions: Lys01 versus Lys05
# Description: as §1, §2
# mice [7] = system: mice
# LN229 GFP-LC3 cells [8] = test: Bafilomycin clamp experiment (LC3 immunoblotting); format: cell-based, human; conditions: 24 hours; HCQ 10 μM, Lys01 10 μM, rapamycin
# Description: FIGS. 4A, 4B, 4C, 4D. Autophagy inhibition and cytotoxicity of Lys01 compared to HCQ (4A) Representative images of LN229 GFP-LC3 cells treated as indicated for 4 hours. White arrows: small puncta; red arrows: dense puncta. Graphs show mean+/−SEM puncta/cell. (4B) Representative electron micrographs of LN229-GFP-LC3 cells treated (4 hours) with DMSO, HCQ 10 μM, or Lys01 10 μM Arrows: Autophagic vesicles. (4C) LC3 immunoblotting of LN229 cells treated for 24 hours an indicated; calculated ratio of LC3II/LC3I ratios for bafilomycin versus control co-treatment. Above the dashed line indicates an autophagy inducer or control, below the dashed line indicated an autophagy inhibitor. (4D) MTT assay (72 hours) for 4 cell lines. Red: Lys01, Blue: Lys02, Purple: Lys03 Green: Lys04 Orange: HCQ. Values presented are means+/−SEM with 5 replicates per treatment.
# To further characterize the effects of Lys01 on autophagy, LN229 GFP-LC3 cells were treated with Lys01 or HCQ (FIG. 4A). […] Electron micrographs of LN229 GFP-LC3 cells treated with DMSO, HCQ, or Lys01 further characterized the significant morphological difference in the size and number of vesicles produced by blockade of autophagy with these agents (FIG. 4B). Thus, Lys01 produces morphological changes more pronounced than HCQ, a known lysosomal inhibitor, at 10-fold lower concentrations. […]
# [9] = Acridine orange staining of acidic vesicles; format: cell-based; conditions: 24 hours
# acid phosphatase [10] = conditions: 1205Lu xenograft tumors; after 14 days of treatment
# cathepsin D [11] = conditions: 1205Lu xenograft tumors; 14 days
# acid phosphatase [12] = conditions: 1205Lu cells; 10 μM; within 24 hours
# [13] = format: cell-based; conditions: within 30 minutes
# 1205Lu xenografts = test: 1205Lu xenograft antitumor activity (14 days); format: in vivo, nude mice; conditions: for increase in AV/cell compared to control treated tumors: end of 14 days of treatment, HCQ 60 mg/kg
# mice [14] = conditions: for mortality: daily i.p. for 48 hours, HCQ 60 mg/kg, Lys05 76 mg/kg
# Description: as §2
# LN229 GFP-LC3 cells [15] = test: GFP-LC3 puncta imaging in LN229 GFP-LC3 cells; format: cell-based, human; conditions: within 4 hours
# [16] = human, 24 h, 10 μM
# Description: FIGS. 11A, 11B, 11C, 11D. […] (11B) Concentrations of HCQ or Lys05 in cells and tumor whole cell and lysosomal homogenates. […] Lysotracker puncta (red) per cell was scored for three high powered fields. Blue: nuclear DAPI staining. Data presented is mean+SEM (11D) Fluorescence imaging of c8161 cells treated as indicated for 24 hours and stained with acridine orange (AO): orange: Aggregated AO, green: diffuse AO
# FIG. 12. High performance liquid chromatography tandem mass spectrometry assay for HCQ and Lys05. 1205Lu cells (24 hours) and 1205Lu tumors (14 days). WC: Whole cell homogenate L: Lysosomal subfraction HCQ: Hydroxychloroquine
# [17] = system: LC3II/LC3I ratio in LN229 cells; test: LC3 immunoblotting (LC3II/LC3I ratio) in LN229 cells; format: cell-based, human; conditions: 4 hours
# Description: FIG. 3. Effects of Lys01-Lys04 on LC3 immunoblotting Immunoblotting and quantification of LC3II/LC3I ratio in lysates from LN229 cells treated for 4 hours. The graphs show (mean+/−SD) LC3II/LC3I ratios of each treatment normalized to the LC3II/LC3I ratio of control treated cells for each experiment.
# LN229 (human glioblastoma) were treated with Lys01 and derivatives Lys02, Lys03, Lys04, HCQ and CQ. […] LC3 is a ubiquitin-like protein which exists as an unconjugated form (LC3I) or conjugated to AV membranes (LC3II) (25). The ratio of LC3II/LC3I reflects the accumulation of AV in cells, and therefore effective autophagy inhibition.
compound,measurement,setting,value
CN(CCN)CCNc1ccnc2cc(Cl)ccc12 [Lys02],IC50,[1],35 to 91 µM
CN(CCNc1ccnc2cc(Cl)ccc12)CCNc1ccnc2cc(Cl)ccc12.Cl.Cl.Cl [Lys05],clinical signs,mice [2],lethargic with arched backs
same,histology of the ileum: Paneth cells,mice [2],dysmorphic Paneth cells
same,LC3II/LC3I ratio,c8161 cells [3],equivalent dose-dependent increases
same,autophagy cargo protein p62,c8161 cells [3],accumulation
same,acid-dependent processing of immature cathepsin D to the mature activated form within the lysosome,cathepsin D [4],decreased acid-dependent processing
same,LC3II/LC3I levels in tumors compared to control- or HCQ-treated tumors,"c8161 xenografts; 76 mg/kg i.p. daily, 48 hours",Significantly higher
same,increase in the mean number of AV/cell compared to control- or HCQ-treated tumors,"c8161 xenografts; Lys05 76 mg/kg i.p. daily, 48 hours, electron microscopy",> 2 fold
same,cleaved caspase 3 levels compared to HCQ- or PBS-treated tumors,c8161 xenografts; after 48 hours of treatment,elevated
same,excised tumor weights,"[5]; 10 mg/kg daily dosing, end of the experiment",significant antitumor activity
same,average daily tumor growth rate,"[5]; 10, 40 mg/kg i.p. daily, 80 mg/kg i.p. 3/5 days",significantly impaired in a dose-dependent fashion
same,LC3II/LC3I ratio in tumor lysates compared to control,"[5]; after 14 days, all Lys05 doses including 10 mg/kg",significant increase
same,tumor growth curves compared to control,[5]; all 3 doses of Lys05,significant tumor growth impairment
same,IC50 values in the MTT assay,c8161 cells [6],identical
same,mice euthanized early for bowel obstruction,mice [7]; 80 mg/kg i.p. 3/5 days,2/8
same,bowel thickening and obstruction,"mice [7]; mouse, in vivo",limited to 80 mg/kg dose cohort
same,LC3II/LC3I ratio in bafilomycin treated cells compared to control cells,LN229 GFP-LC3 cells [8],did not demonstrate an increase
same,acidic vesicles (acridine orange),[9]; 10 μM,accumulation of acidic vesicles
same,acidic vesicles (acridine orange),[9]; 50 μM,no acidic vesicles were observed
same,increase in extralysosomal acid phosphatase activity,acid phosphatase [10],1.75 fold
same,increased acid-dependent processing of cathepsin D within the whole cell homogenate,cathepsin D [11],not observed
same,reduction in acid phosphatase activity in the lysosomal fraction versus PBS treated cells,acid phosphatase [12],43%
same,Lysotracker-positive puncta,[13]; 10 μM,fewer Lysotracker-positive puncta
same,Lysotracker-positive puncta,[13]; 100 μM,fewer Lysotracker-positive puncta
same,tumor growth (growth curves) compared to controls,"1205Lu xenografts; Lys05 76 mg/kg i.p. 3/5 days, 14 days",significantly impaired
same,reduction in the average daily tumor growth rate compared to vehicle treated controls,"1205Lu xenografts; Lys05 76 mg/kg i.p. 3/5 days, p=0.002",53%
same,average daily tumor growth rate,"1205Lu xenografts; Lys05 76 mg/kg i.p. 3/5 days, vehicle 31.2",14.6 mm^3/day
same,tumor necrosis,"1205Lu xenografts; center of tumors, after 14 days",Extensive tumor necrosis
same,increase in AV/cell compared to control treated tumors,1205Lu xenografts; Lys05 76 mg/kg i.p. 3/5 days,6 fold
same,mortality,mice [14],no mice died
same,clinical signs,"mice [14]; mouse, in vivo, ip, 76 mg/kg",arched backs and lethargy
"CCN(CCO)CCCC(C)Nc1ccnc2cc(Cl)ccc12 (stereo not shown) [HCQ, hydroxychloroquine, reference compound]",GFP-LC3 punctate fluorescence,LN229 GFP-LC3 cells [15]; 1 μM,observed in a minority of cells
same,GFP-LC3 punctate fluorescence,LN229 GFP-LC3 cells [15]; 10 μM,numerous small puncta
same,GFP-LC3 punctate fluorescence,LN229 GFP-LC3 cells [15]; 100 μM,larger dense puncta
same,concentration in the lysosomal fraction,[16],13 µM
same,concentration in the whole cell homogenate,[16],8 µM
same,LC3II/LC3I ratio in bafilomycin treated cells compared to control cells,LN229 GFP-LC3 cells [8],did not demonstrate an increase
same,IC50,[1],15 to 42 µM
same,acidic vesicles (acridine orange),[9]; dose range,dose-dependent accumulation of acidic vesicles
same,Lysotracker-positive puncta,[13]; 10 μM,not observed
same,Lysotracker-positive puncta,[13]; 100 μM,significant decrease
same,increase in AV/cell compared to control treated tumors,1205Lu xenografts; Lys05 76 mg/kg i.p. 3/5 days,3 fold
same,mortality,mice [14],no mice died
Clc1ccc2c(NCCOCCOCCNc3ccnc4cc(Cl)ccc34)ccnc2c1 [Lys04],dose-response relationship / potency in LC3 autophagy assay,[17],intermediate potency
same,IC50,[1],10 to 17 µM
COc1ccc2c(NCCN(C)CCNc3ccnc4cc(OC)ccc34)ccnc2c1 [Lys03],IC50,[1],24 to 53 µM
